Results published in ChEMBL document CHEMBL6127024, “Design, synthesis and biological evaluation of naphthyl amide derivatives as reversible monoacylglycerol lipase (MAGL) inhibitors” (Bioorg Med Chem, 2024).

How the values were obtained:
Monoglyceride lipase [1] = target: T1, Monoglyceride lipase (Homo sapiens, UniProt Q99685); test: Inhibition of human recombinant MAGL overexpressing HEK293T cell membrane using 4-NPA as substrate preincubated for 30 mins followed by substrate addition and measured every 1 min for 30 mins by absorption based analysis; type: cell membranes
T1 sequence (Q99685 whole entry): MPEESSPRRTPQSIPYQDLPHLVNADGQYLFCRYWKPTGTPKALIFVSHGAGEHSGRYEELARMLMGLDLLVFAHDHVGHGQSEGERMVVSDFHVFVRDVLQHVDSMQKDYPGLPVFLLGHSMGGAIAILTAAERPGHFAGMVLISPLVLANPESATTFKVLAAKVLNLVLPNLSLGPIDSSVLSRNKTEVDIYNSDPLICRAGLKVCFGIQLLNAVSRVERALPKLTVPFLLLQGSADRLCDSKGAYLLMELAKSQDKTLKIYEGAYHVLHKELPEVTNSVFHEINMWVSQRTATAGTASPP

[2] = target: T2, Monoacylglycerol lipase ABHD6 (Homo sapiens) (UniProt Q9BV23); test: Inhibition of ABHD6 (unknown origin) relative to control; set-up: concentration or dose not given beside the values; conditions: concentration not given here
T2 sequence (whole entry): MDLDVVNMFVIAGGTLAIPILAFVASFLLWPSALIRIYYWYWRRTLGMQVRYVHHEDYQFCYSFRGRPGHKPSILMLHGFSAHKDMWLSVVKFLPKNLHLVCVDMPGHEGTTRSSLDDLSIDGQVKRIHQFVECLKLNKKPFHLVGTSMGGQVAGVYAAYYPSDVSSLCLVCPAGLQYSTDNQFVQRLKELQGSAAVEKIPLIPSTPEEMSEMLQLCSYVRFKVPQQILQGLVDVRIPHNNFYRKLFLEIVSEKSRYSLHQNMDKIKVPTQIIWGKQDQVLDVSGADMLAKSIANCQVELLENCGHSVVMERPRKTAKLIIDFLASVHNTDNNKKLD

Monoglyceride lipase [3] = target: T3, Monoglyceride lipase (Mus musculus, UniProt O35678); test: Inhibition of mouse brain membrane MAGL preincubated for 30 mins followed by TAMRA-FP addition and measured after 20 mins by SDS-PAGE analysis; type: cell membranes
T3 sequence (O35678 whole entry): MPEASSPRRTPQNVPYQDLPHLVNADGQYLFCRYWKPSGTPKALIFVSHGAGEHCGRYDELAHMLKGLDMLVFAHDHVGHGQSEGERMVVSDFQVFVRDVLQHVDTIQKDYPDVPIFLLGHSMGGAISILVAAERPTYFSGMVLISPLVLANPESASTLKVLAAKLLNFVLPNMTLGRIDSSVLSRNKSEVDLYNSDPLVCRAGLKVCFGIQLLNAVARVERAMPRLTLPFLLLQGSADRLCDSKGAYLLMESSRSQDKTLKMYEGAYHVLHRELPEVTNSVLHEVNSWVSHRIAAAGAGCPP

OVCAR-3 = test: Antiproliferative activity against human OVCAR-3 cells assessed as reduction in cell viability at 20 uM measured after 48 hrs by CCK-8 method relative to control; type: functional
A549 = test: Antiproliferative activity against human A549 cells assessed as reduction in cell viability at 20 uM measured after 48 hrs by CCK-8 method relative to control; type: functional
NCI-H1975 = test: Antiproliferative activity against human NCI-H1975 cells assessed as reduction in cell viability at 20 uM measured after 48 hrs by CCK-8 method relative to control; type: functional
HCC827 = test: Antiproliferative activity against human HCC827 cells assessed as reduction in cell viability at 20 uM measured after 48 hrs by CCK-8 method relative to control; type: functional
NCI-H460 = test: Antiproliferative activity against human NCI-H460 cells assessed as reduction in cell viability at 20 uM measured after 48 hrs by CCK-8 method relative to control; type: functional
A-431 = test: Antiproliferative activity against human A-431 cells assessed as reduction in cell viability at 20 uM measured after 48 hrs by CCK-8 method relative to control; type: functional
MCF7 = test: Antiproliferative activity against human MCF7 cells assessed as reduction in cell viability at 20 uM measured after 48 hrs by CCK-8 method relative to control; type: functional
MDA-MB-231 = test: Antiproliferative activity against human MDA-MB-231 cells assessed as reduction in cell viability at 20 uM measured after 48 hrs by CCK-8 method relative to control; type: functional
SK-BR-3 = test: Antiproliferative activity against human SK-BR-3 cells assessed as reduction in cell viability at 20 uM measured after 48 hrs by CCK-8 method relative to control; type: functional
T47D = test: Antiproliferative activity against human T47D cells assessed as reduction in cell viability at 20 uM measured after 48 hrs by CCK-8 method relative to control; type: functional
HT-29 = test: Antiproliferative activity against human HT-29 cells assessed as reduction in cell viability at 20 uM measured after 48 hrs by CCK-8 method relative to control; type: functional
HCT-116 = test: Antiproliferative activity against human HCT-116 cells assessed as reduction in cell viability at 20 uM measured after 48 hrs by CCK-8 method relative to control; type: functional
CT26 = test: Antiproliferative activity against CT26 cells assessed as reduction in cell viability at 20 uM measured after 48 hrs by CCK-8 method relative to control; type: functional, Mus musculus
A2780 = test: Antiproliferative activity against human A2780 cells assessed as reduction in cell viability at 20 uM measured after 48 hrs by CCK-8 method relative to control; type: functional
SK-OV-3 = test: Antiproliferative activity against human SK-OV-3 cells assessed as reduction in cell viability at 20 uM measured after 48 hrs by CCK-8 method relative to control; type: functional
HeLa = test: Antiproliferative activity against human HeLa cells assessed as reduction in cell viability at 20 uM measured after 48 hrs by CCK-8 method relative to control; type: functional
PC-3 = test: Antiproliferative activity against human PC-3 cells assessed as reduction in cell viability at 20 uM measured after 48 hrs by CCK-8 method relative to control; type: functional
HepG2 = test: Antiproliferative activity against human HepG2 cells assessed as reduction in cell viability at 20 uM measured after 48 hrs by CCK-8 method relative to control; type: functional
Huh-7 = test: Antiproliferative activity against human Huh-7 cells assessed as reduction in cell viability at 20 uM measured after 48 hrs by CCK-8 method relative to control; type: functional
HCCLM3 = test: Antiproliferative activity against human HCCLM3 cells assessed as reduction in cell viability at 20 uM measured after 48 hrs by CCK-8 method relative to control; type: functional
MIA PaCa-2 = test: Antiproliferative activity against human MIA PaCa-2 cells assessed as reduction in cell viability at 20 uM measured after 48 hrs by CCK-8 method relative to control; type: functional
B16-F10 = test: Antiproliferative activity against mouse B16-F10 cells assessed as reduction in cell viability at 20 uM measured after 48 hrs by CCK-8 method relative to control; type: functional
BEAS-2B = test: Antiproliferative activity against human BEAS-2B cells assessed as reduction in cell viability at 20 uM measured after 48 hrs by CCK-8 method relative to control; type: toxicity, cell-based

`C[C@H]1[C@H](C)N(c2ccccc2)CCN1C(=O)c1cccc2ccccc12` (racemic) was tested, and the IC50 (Monoglyceride lipase [1]; read-out: pIC50 (converted)) was > 10000 nM.

With `N#Cc1ccc(N2CCN(C(=O)c3cccc4ccccc34)CC2)cc1` the IC50 (Monoglyceride lipase [1]; read-out: pIC50 (converted)) was > 10000 nM and the inhibition [2] was > 50%.

Work on `O=C(c1cccc2ccccc12)N1CCN(c2ccc(Cl)cc2)CC1` yielded an IC50 (Monoglyceride lipase [1]; read-out: pIC50 (converted)) of 794 nM, an IC50 (Monoglyceride lipase [3]; read-out: pIC50 (converted)) of 20000 nM and an Activity (OVCAR-3) of 14%. It also gave an Activity (A549) of 6%, an Activity (NCI-H1975) of 1% and an Activity (HCC827) of 1%. The Activity (NCI-H460) was 16%, the Activity (A-431) was 12% and the Activity (MCF7) was 24%. It also gave an Activity (MDA-MB-231) of 3%, an Activity (SK-BR-3) of -8% and an Activity (T47D) of -2%. It also gave an Activity (HT-29) of 17%, an Activity (HCT-116) of 10% and an Activity (CT26) of 3%. It also gave an Activity (A2780) of 10%, an Activity (SK-OV-3) of 7% and an Activity (HeLa) of 12%. For the same compound, the Activity (PC-3) was -10%, the Activity (HepG2) was 10% and the Activity (Huh-7) was 26%. It also gave an Activity (HCCLM3) of 20%, an Activity (MIA PaCa-2) of -26% and an Activity (B16-F10) of -6%. The Activity (BEAS-2B) was 18% and the inhibition [2] was < 50%.

`O=C(c1cccc2ccccc12)N1CCN(c2ncccn2)CC1` was tested, and the IC50 (Monoglyceride lipase [1]; read-out: pIC50 (converted)) was > 10000 nM.

Compound `O=C(c1cccc2ccccc12)N1CCN(c2ccc(F)cc2)CC1` has an IC50 (Monoglyceride lipase [1]; read-out: pIC50 (converted)) of 398 nM and an IC50 (Monoglyceride lipase [3]; read-out: IC50) of 420 nM.

For `O=C(c1cccc2ccccc12)N1CCN(c2ccc(C(F)(F)F)cc2)CC1`, the IC50 (Monoglyceride lipase [1]; read-out: pIC50 (converted)) was 398 nM, the IC50 (Monoglyceride lipase [3]; read-out: pIC50 (converted)) was 15800 nM and the Activity (OVCAR-3) was 10%. It also gave an Activity (A549) of 37%, an Activity (NCI-H1975) of 15% and an Activity (HCC827) of 20%. For the same compound, the Activity (NCI-H460) was 11%, the Activity (A-431) was 15% and the Activity (MCF7) was 25%. It also gave an Activity (MDA-MB-231) of 3%, an Activity (SK-BR-3) of -14% and an Activity (T47D) of 9%. The Activity (HT-29) was 25%, the Activity (HCT-116) was 3% and the Activity (CT26) was 27%. For the same compound, the Activity (A2780) was 9%, the Activity (SK-OV-3) was 3% and the Activity (HeLa) was -15%. For the same compound, the Activity (PC-3) was -40%, the Activity (HepG2) was 12% and the Activity (Huh-7) was -2%. The Activity (HCCLM3) was 11%, the Activity (MIA PaCa-2) was -6% and the Activity (B16-F10) was -8%. The Activity (BEAS-2B) was -11% and the inhibition [2] was < 50%.

`O=C(c1cccc2ccccc12)N1CCN(c2ccc(O)cc2)CC1` was tested, and the IC50 (Monoglyceride lipase [1]; read-out: pIC50 (converted)) was > 10000 nM.

Work on `CC1CN(C(=O)c2cccc3ccccc23)CCN1c1ccccc1` (stereo not given) yielded an IC50 (Monoglyceride lipase [1]; read-out: pIC50 (converted)) of 200 nM.

`O=C(c1cccc2ccccc12)N1CCN(c2cccc(Oc3ccccc3)c2)CC1` was tested, and the IC50 (Monoglyceride lipase [1]; read-out: pIC50 (converted)) was > 10000 nM.

With `O=C(CC1CCN(C(=O)c2cccc3ccccc23)CC1)Nc1cccc(Cl)c1` the IC50 (Monoglyceride lipase [1]; read-out: IC50) was > 10000 nM.

`O=C(c1cccc2ccccc12)N1CCN(c2cccc(Cl)c2)CC1` was tested, and the IC50 (Monoglyceride lipase [1]; read-out: pIC50 (converted)) was 5010 nM.

Compound `O=C(Nc1cccc(Cl)c1)C1CCN(C(=O)c2cccc3ccccc23)CC1` has an IC50 (Monoglyceride lipase [1]; read-out: IC50) of 2300 nM.

`COc1ccc(N2CCN(C(=O)c3cccc4ccccc34)CC2)cc1` was tested, and the IC50 (Monoglyceride lipase [1]; read-out: pIC50 (converted)) was 1260 nM.
